Test results reported in the NIST ThermoML archive (doi:10.1016/j.jct.2011.02.011).
Where “and” joins values, the source holds several entries; their conditions need not be identical. Equal values may be shown once. ± gives the expanded uncertainty stated by the source.

Conditions: Crystal, Calculated from knudsen effusion weight loss

[O-][n+]1ccccc1-c1ccccn1 [2,2'-bipyridyl N-oxide]
Conditions	vapor or sublimation pressure
319.17 K	5.02e-05 ± 2.5e-06 kPa and 4.83e-05 ± 2.4e-06 kPa and 4.82e-05 ± 2.4e-06 kPa
321.15 K	6.32e-05 ± 3.2e-06 kPa and 6.13e-05 ± 3.1e-06 kPa
323.16 K	7.8e-05 ± 3.9e-06 kPa and 8.26e-05 ± 4.1e-06 kPa and 7.96e-05 ± 4e-06 kPa
325.15 K	0.0001 ± 5e-06 kPa and 9.94e-05 ± 5e-06 kPa and 0.000102 ± 5e-06 kPa
327.14 K	0.000126 ± 6e-06 kPa and 0.000128 ± 6e-06 kPa and 0.000127 ± 6e-06 kPa
329.16 K	0.000163 ± 8e-06 kPa and 0.000161 ± 8e-06 kPa and 0.000162 ± 8e-06 kPa
331.13 K	0.000201 ± 1e-05 kPa and 0.000198 ± 1e-05 kPa and 0.0002 ± 1e-05 kPa
